Assay type in all cases: functional
Assay [1] concerns the target Megakaryocyte-associated tyrosine-protein kinase (Homo sapiens, UniProt P42679).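 Further: affinity measured as one member of a kinase panel (Navigating the Kinome) against MATK.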
The target of assay [2] is Ribosomal protein S6 kinase alpha-3 (Homo sapiens, UniProt P51812).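 Further: measured within a kinome-wide profiling panel.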
Assay [3] concerns the target Dual specificity mitogen-activated protein kinase kinase 1 (Homo sapiens, UniProt Q02750). The experiment in a line: Navigating the Kinome. Panel member name: MAP2K1.
Assay [4] has as its target Tyrosine-protein kinase JAK2 (Homo sapiens, UniProt O60674).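 Further: JAK2 tested as one member of a kinase panel.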
Assay [5] deals with 5'-AMP-activated protein kinase catalytic subunit alpha-1 (Homo sapiens, UniProt Q13131).
Assay [6] deals with Proto-oncogene tyrosine-protein kinase receptor Ret (Homo sapiens, UniProt P07949).
Assay [7] addresses T1, Serine/threonine-protein kinase D2 (Homo sapiens, UniProt Q9BZL6).
T1 sequence (Q9BZL6 whole entry): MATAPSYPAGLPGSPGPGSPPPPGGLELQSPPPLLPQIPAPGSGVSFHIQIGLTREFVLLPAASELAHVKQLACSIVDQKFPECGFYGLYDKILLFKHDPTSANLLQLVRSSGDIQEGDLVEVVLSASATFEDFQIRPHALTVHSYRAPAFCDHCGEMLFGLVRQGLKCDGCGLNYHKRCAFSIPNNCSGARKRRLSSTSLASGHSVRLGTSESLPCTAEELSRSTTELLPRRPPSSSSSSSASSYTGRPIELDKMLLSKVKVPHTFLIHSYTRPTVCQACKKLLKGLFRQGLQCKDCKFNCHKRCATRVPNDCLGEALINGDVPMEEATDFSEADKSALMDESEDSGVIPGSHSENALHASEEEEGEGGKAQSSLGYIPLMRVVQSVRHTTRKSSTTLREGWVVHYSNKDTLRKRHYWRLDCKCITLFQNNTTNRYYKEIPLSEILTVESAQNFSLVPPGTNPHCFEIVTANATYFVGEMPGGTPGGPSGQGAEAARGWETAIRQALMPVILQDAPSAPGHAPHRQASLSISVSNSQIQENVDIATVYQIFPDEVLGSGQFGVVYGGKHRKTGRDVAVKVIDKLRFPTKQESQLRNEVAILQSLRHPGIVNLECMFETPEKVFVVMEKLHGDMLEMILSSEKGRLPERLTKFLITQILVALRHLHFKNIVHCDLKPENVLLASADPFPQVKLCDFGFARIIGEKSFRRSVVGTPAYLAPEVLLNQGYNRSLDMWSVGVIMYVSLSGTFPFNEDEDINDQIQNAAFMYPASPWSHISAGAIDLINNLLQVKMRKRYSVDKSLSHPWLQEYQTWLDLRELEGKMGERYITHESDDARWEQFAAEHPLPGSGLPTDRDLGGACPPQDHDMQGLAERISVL

The target of assay [8] is SRSF protein kinase 1 (Homo sapiens, UniProt Q96SB4).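 Further: measured as one member of a kinome-wide kinase profiling panel.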
Assay [9] addresses Mast/stem cell growth factor receptor Kit (Homo sapiens, UniProt P10721).
The target in assay [10] is Serine/threonine-protein kinase PAK 1 (Homo sapiens, UniProt Q13153).
The target in assay [11] is Fibroblast growth factor receptor 1 (Homo sapiens, UniProt P11362).
Assay [12] deals with Casein kinase I isoform alpha (Homo sapiens, UniProt P48729).
The target in assay [13] is Testis-specific serine/threonine-protein kinase 1 (Homo sapiens, UniProt Q9BXA7).
For assay [14], the target named is Glycogen synthase kinase-3 alpha (Homo sapiens, UniProt P49840).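 Further: GSK3A result taken from a broad kinome-wide kinase panel.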
Assay [15] deals with MAP kinase-interacting serine/threonine-protein kinase 2 (Homo sapiens, UniProt Q9HBH9).
In assay [16] the target is Vascular endothelial growth factor receptor 2 (Homo sapiens, UniProt P35968).
Assay [17] concerns the target Insulin-like growth factor 1 receptor (Homo sapiens, UniProt P08069). In words: Navigating the Kinome. Panel member name: IGF1R.
For assay [18], the target named is Mitogen-activated protein kinase 1 (Homo sapiens, UniProt P28482).
Assay [19] concerns the target Misshapen-like kinase 1 (Homo sapiens, UniProt Q8N4C8).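 Further: kinome panel screen with MINK as the panel member.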
Assay [20] deals with T2, cAMP-dependent protein kinase catalytic subunit PRKX (Homo sapiens, UniProt P51817).
T2 sequence (P51817 whole entry): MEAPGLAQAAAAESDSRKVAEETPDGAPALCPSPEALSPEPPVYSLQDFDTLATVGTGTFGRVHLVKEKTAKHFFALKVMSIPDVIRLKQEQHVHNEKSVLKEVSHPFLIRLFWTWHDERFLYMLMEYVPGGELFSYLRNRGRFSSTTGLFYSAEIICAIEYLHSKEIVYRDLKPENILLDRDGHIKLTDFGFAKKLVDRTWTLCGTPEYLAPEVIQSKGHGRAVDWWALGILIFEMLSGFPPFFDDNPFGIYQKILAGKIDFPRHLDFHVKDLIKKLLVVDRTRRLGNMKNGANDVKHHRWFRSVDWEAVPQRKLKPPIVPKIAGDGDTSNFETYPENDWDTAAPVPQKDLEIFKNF

Assay [21] deals with Protein-tyrosine kinase 6 (Homo sapiens, UniProt Q13882).
The target of assay [22] is Serine/threonine-protein kinase Nek2 (Homo sapiens, UniProt P51955).
Assay [23] has as its target Vascular endothelial growth factor receptor 1 (Homo sapiens, UniProt P17948).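 Further: measured within a kinome-wide profiling panel, FLT1 as the panel member.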
For assay [24], the target named is STE20-like serine/threonine-protein kinase (Homo sapiens, UniProt Q9H2G2).
Assay [25] deals with BDNF/NT-3 growth factors receptor (Homo sapiens, UniProt Q16620).
Assay [26] deals with Lymphokine-activated killer T-cell-originated protein kinase (Homo sapiens, UniProt Q96KB5).
Assay [27] concerns the target Dual specificity mitogen-activated protein kinase kinase 2 (Homo sapiens, UniProt P36507). The experiment in a line: Navigating the Kinome. Panel member name: MAP2K2.
The target of assay [28] is Calcium/calmodulin-dependent protein kinase type II subunit alpha (Homo sapiens, UniProt Q9UQM7). In words: Navigating the Kinome. Panel member name: CAMK2A.

Structures are written as SMILES. Calls of active or inactive are those of the source.

As usually defined, the Ki is the equilibrium dissociation constant of an inhibitor or competing ligand from its target. Broadly, the pKi is −log10 of the Ki, conventionally taken in molar units. A low value points to a high Ki.

Sequence of Dual specificity mitogen-activated protein kinase kinase 1 (Q02750 whole entry): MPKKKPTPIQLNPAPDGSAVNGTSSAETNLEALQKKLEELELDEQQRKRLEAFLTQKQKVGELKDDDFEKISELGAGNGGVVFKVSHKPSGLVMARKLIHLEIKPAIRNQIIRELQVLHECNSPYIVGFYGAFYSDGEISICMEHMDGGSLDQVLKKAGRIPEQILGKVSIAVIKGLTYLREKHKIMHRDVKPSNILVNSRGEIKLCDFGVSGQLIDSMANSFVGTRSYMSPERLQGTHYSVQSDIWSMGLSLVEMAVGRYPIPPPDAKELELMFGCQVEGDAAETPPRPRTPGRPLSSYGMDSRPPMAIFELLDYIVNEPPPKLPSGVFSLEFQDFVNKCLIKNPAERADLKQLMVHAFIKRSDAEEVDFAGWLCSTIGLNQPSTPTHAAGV
Sequence of Tyrosine-protein kinase JAK2 (O60674 whole entry): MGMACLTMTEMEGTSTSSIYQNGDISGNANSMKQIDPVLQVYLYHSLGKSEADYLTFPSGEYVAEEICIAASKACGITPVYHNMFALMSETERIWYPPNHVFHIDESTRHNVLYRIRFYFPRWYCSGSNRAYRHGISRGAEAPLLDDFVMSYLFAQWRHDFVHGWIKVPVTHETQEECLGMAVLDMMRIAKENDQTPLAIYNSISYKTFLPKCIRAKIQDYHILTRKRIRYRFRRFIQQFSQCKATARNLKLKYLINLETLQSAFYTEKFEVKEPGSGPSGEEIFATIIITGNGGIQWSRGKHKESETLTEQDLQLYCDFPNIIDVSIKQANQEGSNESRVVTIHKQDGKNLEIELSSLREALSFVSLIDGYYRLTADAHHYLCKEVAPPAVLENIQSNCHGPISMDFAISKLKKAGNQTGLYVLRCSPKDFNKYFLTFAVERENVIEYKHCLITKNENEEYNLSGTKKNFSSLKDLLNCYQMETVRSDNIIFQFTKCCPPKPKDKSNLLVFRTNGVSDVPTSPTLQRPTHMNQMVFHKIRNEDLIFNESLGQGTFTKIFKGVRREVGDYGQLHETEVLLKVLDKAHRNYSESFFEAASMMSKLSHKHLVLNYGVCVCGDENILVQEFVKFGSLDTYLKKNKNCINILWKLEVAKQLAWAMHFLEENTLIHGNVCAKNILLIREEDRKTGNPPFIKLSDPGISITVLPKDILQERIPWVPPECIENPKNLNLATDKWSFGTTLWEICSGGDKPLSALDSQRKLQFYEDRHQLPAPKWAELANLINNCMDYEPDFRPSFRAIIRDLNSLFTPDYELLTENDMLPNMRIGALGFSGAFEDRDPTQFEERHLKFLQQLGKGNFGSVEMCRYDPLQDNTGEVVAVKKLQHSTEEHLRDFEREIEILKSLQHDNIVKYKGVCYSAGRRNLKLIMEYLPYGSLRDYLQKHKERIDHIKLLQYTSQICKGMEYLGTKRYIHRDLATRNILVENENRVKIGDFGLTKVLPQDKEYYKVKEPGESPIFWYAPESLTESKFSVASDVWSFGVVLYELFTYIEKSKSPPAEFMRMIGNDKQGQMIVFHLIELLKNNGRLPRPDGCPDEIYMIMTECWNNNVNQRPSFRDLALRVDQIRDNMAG
Sequence of Vascular endothelial growth factor receptor 2 (P35968 whole entry): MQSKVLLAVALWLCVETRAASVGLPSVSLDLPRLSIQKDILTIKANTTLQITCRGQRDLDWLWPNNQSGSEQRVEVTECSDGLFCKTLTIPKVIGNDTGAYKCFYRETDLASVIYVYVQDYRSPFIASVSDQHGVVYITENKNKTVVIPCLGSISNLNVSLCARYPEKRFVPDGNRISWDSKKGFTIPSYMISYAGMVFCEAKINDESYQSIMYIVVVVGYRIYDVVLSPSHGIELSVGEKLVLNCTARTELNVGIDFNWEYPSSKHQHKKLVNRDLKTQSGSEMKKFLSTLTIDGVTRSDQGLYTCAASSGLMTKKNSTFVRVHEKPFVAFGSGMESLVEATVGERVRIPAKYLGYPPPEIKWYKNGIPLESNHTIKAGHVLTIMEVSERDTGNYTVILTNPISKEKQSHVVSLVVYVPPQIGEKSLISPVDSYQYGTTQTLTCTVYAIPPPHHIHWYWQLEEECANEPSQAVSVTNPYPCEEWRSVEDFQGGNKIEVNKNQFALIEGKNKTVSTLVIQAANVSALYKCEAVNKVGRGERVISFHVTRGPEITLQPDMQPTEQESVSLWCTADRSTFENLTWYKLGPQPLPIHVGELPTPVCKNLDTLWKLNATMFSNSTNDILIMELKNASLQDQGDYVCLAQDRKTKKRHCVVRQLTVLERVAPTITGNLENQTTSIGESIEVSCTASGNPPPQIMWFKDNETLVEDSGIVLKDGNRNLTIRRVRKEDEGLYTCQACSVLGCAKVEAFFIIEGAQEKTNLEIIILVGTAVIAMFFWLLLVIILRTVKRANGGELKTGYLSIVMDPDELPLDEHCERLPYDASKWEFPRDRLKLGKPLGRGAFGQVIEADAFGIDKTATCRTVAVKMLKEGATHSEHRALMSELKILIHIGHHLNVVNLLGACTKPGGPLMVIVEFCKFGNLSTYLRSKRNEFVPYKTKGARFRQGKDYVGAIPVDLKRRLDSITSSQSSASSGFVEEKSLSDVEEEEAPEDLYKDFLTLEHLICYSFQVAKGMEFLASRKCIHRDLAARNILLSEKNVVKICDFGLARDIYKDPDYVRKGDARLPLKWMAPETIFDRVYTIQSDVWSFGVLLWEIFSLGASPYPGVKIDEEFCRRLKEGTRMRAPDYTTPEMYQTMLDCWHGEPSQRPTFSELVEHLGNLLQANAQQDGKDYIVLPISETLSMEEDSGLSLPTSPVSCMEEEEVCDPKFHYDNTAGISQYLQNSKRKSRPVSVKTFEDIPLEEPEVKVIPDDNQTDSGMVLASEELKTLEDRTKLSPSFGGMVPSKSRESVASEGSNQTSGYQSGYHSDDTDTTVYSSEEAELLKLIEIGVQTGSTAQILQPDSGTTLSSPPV
Sequence of SRSF protein kinase 1 (Q96SB4 whole entry): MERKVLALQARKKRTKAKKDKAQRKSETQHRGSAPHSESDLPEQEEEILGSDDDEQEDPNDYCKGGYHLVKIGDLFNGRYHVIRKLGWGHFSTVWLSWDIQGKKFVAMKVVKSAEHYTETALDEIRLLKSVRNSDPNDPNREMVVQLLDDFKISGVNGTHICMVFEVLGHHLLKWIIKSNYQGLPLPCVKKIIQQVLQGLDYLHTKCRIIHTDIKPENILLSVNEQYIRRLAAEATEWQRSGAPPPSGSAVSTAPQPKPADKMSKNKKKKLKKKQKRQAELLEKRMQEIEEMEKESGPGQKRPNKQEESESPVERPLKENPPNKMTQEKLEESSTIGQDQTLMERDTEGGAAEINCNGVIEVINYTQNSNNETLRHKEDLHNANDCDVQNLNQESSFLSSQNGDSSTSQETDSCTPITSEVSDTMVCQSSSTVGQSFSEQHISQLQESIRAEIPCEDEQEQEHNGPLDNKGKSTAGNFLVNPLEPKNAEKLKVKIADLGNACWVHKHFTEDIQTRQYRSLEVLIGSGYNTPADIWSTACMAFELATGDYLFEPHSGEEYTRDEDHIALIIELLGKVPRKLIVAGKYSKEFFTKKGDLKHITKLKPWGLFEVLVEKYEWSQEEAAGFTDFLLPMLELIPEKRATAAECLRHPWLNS
Sequence of Casein kinase I isoform alpha (P48729 whole entry, canonical isoform): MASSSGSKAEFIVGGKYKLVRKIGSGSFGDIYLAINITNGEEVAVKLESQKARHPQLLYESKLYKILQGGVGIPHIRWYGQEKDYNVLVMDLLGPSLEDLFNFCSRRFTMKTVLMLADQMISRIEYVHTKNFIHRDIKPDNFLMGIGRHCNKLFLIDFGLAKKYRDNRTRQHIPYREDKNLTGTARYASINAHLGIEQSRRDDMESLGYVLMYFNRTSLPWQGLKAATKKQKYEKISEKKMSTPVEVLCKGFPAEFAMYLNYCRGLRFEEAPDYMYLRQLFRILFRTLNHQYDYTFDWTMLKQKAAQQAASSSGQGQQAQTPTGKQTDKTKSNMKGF
Sequence of Ribosomal protein S6 kinase alpha-3 (P51812 whole entry): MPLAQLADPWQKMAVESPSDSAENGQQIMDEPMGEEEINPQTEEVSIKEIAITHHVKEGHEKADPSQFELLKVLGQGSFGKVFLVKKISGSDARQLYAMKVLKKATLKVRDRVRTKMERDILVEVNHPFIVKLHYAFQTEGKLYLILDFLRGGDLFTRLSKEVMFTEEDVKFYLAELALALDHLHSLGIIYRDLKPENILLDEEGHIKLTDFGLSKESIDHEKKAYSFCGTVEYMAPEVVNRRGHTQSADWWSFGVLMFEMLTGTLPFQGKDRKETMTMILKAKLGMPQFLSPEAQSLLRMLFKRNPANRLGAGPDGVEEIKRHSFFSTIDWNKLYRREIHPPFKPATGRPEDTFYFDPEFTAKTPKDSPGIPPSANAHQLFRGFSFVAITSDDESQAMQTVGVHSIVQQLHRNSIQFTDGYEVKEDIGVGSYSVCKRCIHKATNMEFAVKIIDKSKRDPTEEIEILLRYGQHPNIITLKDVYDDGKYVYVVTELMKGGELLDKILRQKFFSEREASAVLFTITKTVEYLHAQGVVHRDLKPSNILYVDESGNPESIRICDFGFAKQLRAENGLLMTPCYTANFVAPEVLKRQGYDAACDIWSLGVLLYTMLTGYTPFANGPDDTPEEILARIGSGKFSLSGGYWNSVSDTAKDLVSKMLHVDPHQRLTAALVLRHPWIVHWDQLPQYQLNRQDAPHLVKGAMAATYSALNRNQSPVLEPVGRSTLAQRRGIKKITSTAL
Sequence of MAP kinase-interacting serine/threonine-protein kinase 2 (Q9HBH9 whole entry): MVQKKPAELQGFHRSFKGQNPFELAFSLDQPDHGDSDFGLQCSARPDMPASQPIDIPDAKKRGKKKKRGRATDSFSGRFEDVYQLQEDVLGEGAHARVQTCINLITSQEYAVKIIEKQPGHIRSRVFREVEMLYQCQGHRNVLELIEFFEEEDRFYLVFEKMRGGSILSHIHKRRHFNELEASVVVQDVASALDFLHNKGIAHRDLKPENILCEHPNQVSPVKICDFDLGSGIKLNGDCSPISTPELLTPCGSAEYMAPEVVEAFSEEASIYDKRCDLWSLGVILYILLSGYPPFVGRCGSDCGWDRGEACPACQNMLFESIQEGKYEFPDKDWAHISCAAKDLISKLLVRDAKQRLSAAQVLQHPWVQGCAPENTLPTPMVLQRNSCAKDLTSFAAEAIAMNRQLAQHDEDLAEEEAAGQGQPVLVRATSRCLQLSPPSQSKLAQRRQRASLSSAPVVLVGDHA

For the compound `NC(=O)c1cc(-c2ccnc(N)n2)[nH]c1-c1ccc(Cl)cc1Cl`, the Ki was > 2 µM (inactive) in [1]; 50.1 nM (active) in assay [2]; 2 µM (active) in assay [3]; 20 nM (active) in [4]; > 1.58 µM (inactive) in [5]; > 1.26 µM (inactive) in [6]. Also, the Ki in assay [7] was 316 nM (active); in [8], 1.26 µM (active); in assay [9], > 1.26 µM (inactive); in assay [10], > 10 µM (inactive); in [11], > 3.98 µM (inactive); in [12], 7.94 nM (active). For the same compound, the Ki is > 1.58 µM (inactive) in assay [13]; 6.31 nM (active) in [14]; 79.4 nM (active) in [15]; 794 nM (active) in [16]; > 2 µM (inactive) in assay [17]; 31.6 nM (active) in assay [18]. Moreover, the Ki is 1.58 µM (active) in assay [19]; 1 µM (active) in [20]; > 2.51 µM (inactive) in assay [21]; > 10 µM (inactive) in assay [22]; > 398 nM (inactive) in [23]; 10 µM (active) in [24]. Besides, the Ki in assay [25] is > 3.98 µM (inactive); in [26], 3.16 µM (active); in assay [27] it was > 3.98 µM (inactive); in [28], > 7.94 µM (inactive). Further, the pKi was found to be 7.3 in [2]; 5.7 in assay [3]; 7.7 in assay [4]; 6.5 in [7]; 5.9 in assay [8]; 8.1 in assay [12]. For the same compound, the pKi in assay [14] is 8.2; in [15] it was 7.1; in assay [16], 6.1; in [18], 7.5; in assay [19], 5.8; in assay [20], 6. Also, the negative logarithm of the Ki (pKi) in assay [24] is 5.

As for `Cc1ccc(-n2nc(C(C)(C)C)cc2NC(=O)Nc2ccc(OCCN3CCOCC3)c3ccccc23)cc1` [DORAMAPIMOD], the Ki in assay [2] was > 3980 nM (inactive); in assay [3], > 3.16 µM (inactive); in [27], > 3.98 µM (inactive); in assay [28] it was > 3.98 µM (inactive).

On to `NC(COc1cncc(-c2ccc3c(c2)C(=Cc2ccco2)C(=O)N3)c1)Cc1c[nH]c2ccccc12` (centres undefined), for which the Ki is > 2 µM (inactive) in assay [1]; 316 nM (active) in [4]; 0.02 µM (active) in assay [5]; 0.0501 µM (active) in assay [6]; 15.8 nM (active) in assay [7]; 0.0794 µM (active) in assay [8]. Moreover, the Ki in [9] was 0.126 µM (active); in [10], 0.398 µM (active); in [11], 0.794 µM (active); in [12], 501 nM (active); in [13] it was 0.00631 µM (active); in assay [14] it was 398 nM (active). Besides, the inhibitory constant (Ki) was 316 nM (active) in assay [15]; 398 nM (active) in assay [16]; > 1 µM (inactive) in assay [17]; 398 nM (active) in [18]; 0.0398 µM (active) in [19]; 0.00794 µM (active) in assay [20]. For the same compound, the Ki in assay [21] is > 2.51 µM (inactive); in assay [22], 2 µM (active); in assay [23] it was > 398 nM (inactive); in assay [24], 0.158 µM (active); in [25], 0.316 µM (active); in assay [26] it was 0.501 µM (active).

Values taken from ChEMBL document CHEMBL1201862, “PubChem BioAssay data set” (2004).
